Like-named read-outs stand apart in the source and are kept apart here. Each block holds one compound with its values, some of them ahead of it. Where a SMILES comes first, the peptide text is derived from it. Bridges are numbered along the chain shown (N, C = ends).
Columns and labels:
[1] = system: Aβ25-35-induced short-term memory deficits; assay: Spontaneous alternation performance (Y-maze), treatment started 1 hour after Aβ25-35 injection, tested D08; type: in vivo, mice; settings: for Y-maze % (Sc.Aβ / Vhc = 100) / Y-maze Mean, percentage of alternation: D08
[2] = system: Aβ25-35-induced long-term memory deficits; assay: Step-through passive avoidance test (STPA), D09-D10; type: in vivo, mice
[3] = system: Aβ25-35-induced short-term memory deficits; assay: Long-term study (120 days): weekly Y-maze, NX218 and/or DPZ based treatments; type: in vivo, mice
Procedure: To investigate the potential of NX218 treatment to maintain cognitive restoration for a longer duration and to work as a 2nd line treatment when DPZ lose its activity: a long-term study (120 days) was performed in the Aβ25-35 mouse model of Tauopathies.
Mice were assigned to 6 treatment groups with 5-6 animals per group as described below.
From D01 until D120, mice of groups 1 and 2 were administered IP once a day (o.d.) with vehicle (water for injection).
Test compound NX218: • From D11 until D38, mice of group 3 were administered IP o.d. with NX218 at 2 mg/kg (mice were not treated with vehicle from D01 until D10). • From D01 until D120, mice of group 4 were administered IP o.d. with NX218 at 2 mg/kg.
DPZ rescued by test compound NX218: • From D01, mice of group 5 were administered PO by gavage o.d with DPZ at its active dose (1 mg/kg) until its effect disappears. Its efficacy disappeared on D36. DPZ was administered until D43 and then from D44, NX218 replaced DPZ until D78 via IP administration once a day at its active dose (2 mg/kg). • From D79 until D99: NX218 was administered via IP administration o.d. at a higher dose (4 mg/kg). • From D100 until D113 NX218 was administered via IP administration o.d. at a higher dose (8 mg/kg). • Administration of NX218 was stopped from D114 until animals were sacrificed.
Test compound NX218 in combination with DPZ: • From D01 until D120, mice of group 6 were co-administered with NX218 and DPZ at their respective subactive doses: • NX218: IP o.d., 0.1 mg/kg • DPZ: PO o.d., 0.25 mg/kg
All groups performed one behavioral test every week starting on D08 (7 days after Aβ25-35 peptide injection) to monitor the effects of the compounds:
Spontaneous alternation procedure in the Y-maze (YM, assessing spatial short-term/working memory as described in example 3) on D08, D15, D22, D29, D36, D43, D50, D57, D64, D71, D78, D85, D92, D99, D106, D113 and D120.

[4] = Preliminary PK study in rat; type: in vivo; settings: slow bolus IV 49 mg/kg of NX210
Procedure: (§1) Therefore NX210 PK in animals is followed by the measurement of its cyclic form NX218. First a preliminary PK study in rat was performed in order to validate the method for detecting NX218 in plasma then translated to monkey by performing a more robust PK study with repeated experiments. All PK studies were performed with NaCl 0.9% as vehicle.

PK study in monkey = type: in vivo; settings: for half-life: plasma, iv, 10 mg/kg
Procedure: as §1
In the 3 monkeys tested, data were reproducible after repeated testing at different days (D22, D37 and D51), after bolus IV injection of 10 mg/kg of NX210.

[5] = once a day, NX210 0.1 mg/kg, NX218 0.1 mg/kg, DPZ 0.25 mg/kg
[6] = monkey plasma NX218 after bolus IV 10 mg/kg NX210, mean

Structure (SMILES): COc1cc2c(cc1OC)C(=O)C(CC1CCN(Cc3ccccc3)CC1)C2 (centres unmarked) [DPZ, Donepezil, reference compound]
Y-maze % (Sc.Aβ / Vhc = 100) ([1]; PO 0.25 mg/kg once a day): 56%
Y-maze Mean, percentage of alternation ([1]; PO 0.25 mg/kg once a day): 41.82%
Y-maze % (Sc.Aβ / Vhc = 100) ([1]; PO 1 mg/kg once a day): 93%
Y-maze Mean, percentage of alternation ([1]; PO 1 mg/kg once a day): 68.90%
effect on Aβ25-35-induced short-term memory deficits (Y-maze) at subactive dose, in words [1, 5]: do not impede
EL % (Sc.Aβ / Vhc = 100) ([2]; PO 0.25 mg/kg once a day): 445%
EL Mean, escape latency, retention session ([2]; PO 0.25 mg/kg once a day): 88.67 s
STL % (Sc.Aβ / Vhc = 100) ([2]; PO 0.25 mg/kg once a day): 39%
STL Mean, step-through latency, retention session ([2]; PO 0.25 mg/kg once a day): 109.33 s
EL % (Sc.Aβ / Vhc = 100) ([2]; PO 1 mg/kg once a day): 122%
EL Mean, escape latency, retention session ([2]; PO 1 mg/kg once a day): 24.25 s
STL % (Sc.Aβ / Vhc = 100) ([2]; PO 1 mg/kg once a day): 94%
STL Mean, step-through latency, retention session ([2]; PO 1 mg/kg once a day): 265.83 s
effect on contextual long-term memory deficits (STL and EL) at subactive dose, in words [2, 5]: do not impede
duration of efficacy (Y-maze), in words ([3]; Group 5, DPZ PO 1 mg/kg o.d.): efficient only until D36
% of alternation at DPZ resistance ([3]; Group 5, after 4 weeks of DPZ treatment): 37%
Y-maze (D43) Mean (percentage of alternation) ([3]; Group 5: DPZ 1 mg/kg PO o.d. D01-D43, tested D43): 38.73%
Y-maze (D43) % ([3]; Group 5: DPZ 1 mg/kg PO o.d. D01-D43, tested D43, Group 1 = 100): 52%
Y-maze (D08) Mean, percentage of alternation ([3]; Group 5: DPZ 1 mg/kg PO o.d. from D01, tested D08): 72.08%
Y-maze (D08) % ([3]; Group 5: DPZ 1 mg/kg PO o.d. from D01, tested D08, Group 1 = 100): 98%
Y-maze (D15) Mean, percentage of alternation ([3]; Group 5: DPZ 1 mg/kg PO o.d. from D01, tested D15): 76.00%
Y-maze (D15) % ([3]; Group 5: DPZ 1 mg/kg PO o.d. from D01, tested D15, Group 1 = 100): 98%
Y-maze (D22) Mean, percentage of alternation ([3]; Group 5: DPZ 1 mg/kg PO o.d. from D01, tested D22): 79.07%
Y-maze (D22) % ([3]; Group 5: DPZ 1 mg/kg PO o.d. from D01, tested D22, Group 1 = 100): 106%
Y-maze (D29) Mean, percentage of alternation ([3]; Group 5: DPZ 1 mg/kg PO o.d. from D01, tested D29): 62.05%
Y-maze (D29) % ([3]; Group 5: DPZ 1 mg/kg PO o.d. from D01, tested D29, Group 1 = 100): 80%
Y-maze (D36) Mean (percentage of alternation) ([3]; Group 5: DPZ 1 mg/kg PO o.d. from D01, tested D36): 36.23%
Y-maze (D36) % ([3]; Group 5: DPZ 1 mg/kg PO o.d. from D01, tested D36, Group 1 = 100): 49%

time after injection from which NX218 became impossible to quantify in plasma [4]: 3 h
AUC (PK study in monkey; [6]): 960 ng·h/mL
AUC(0-inf) (PK study in monkey; [6]): 1060 ng·h/mL
Cmax (PK study in monkey; [6]): 19300 ng/mL
Tmax (PK study in monkey; [6]): 0 h
clearance (PK study in monkey; [6]): 190 mL/min/kg
Vd (PK study in monkey; monkey plasma NX218 after bolus IV 10 mg/kg NX210, mean, read-out: VSS): 0.0936 L/kg
plasma concentration course after injection, in words (PK study in monkey; monkey, bolus IV 10 mg/kg of NX210): rapidly decreased up to 30 minutes
half-life (PK study in monkey; monkey, monkey plasma NX218 after bolus IV 10 mg/kg NX210, mean, read-out: t½): 12.7 min
half-life (PK study in monkey; monkey, monkey, bolus IV 10 mg/kg NX210, NX218 measured, read-out: half-life): ~12 min
Structure (SMILES): N=C(N)NCCC[C@@H]1NC(=O)[C@H](CO)NC(=O)[C@@H](NC(=O)[C@H](CO)NC(=O)[C@H](CO)NC(=O)[C@H](Cc2c[nH]c3ccccc23)NC(=O)CNC(=O)[C@H](CO)NC(=O)[C@@H](N)Cc2c[nH]c3ccccc23)CSSC[C@@H](C(=O)NCC(=O)O)NC(=O)[C@H](CO)NC1=O [NX218, W-S-G-W-S-S-C-S-R-S-C-G] (H-WSGWSSCSRSCG-OH; disulfide 7-11; N-terminus and C-terminus assumed)

Source: patent US20230212225A1, “PEPTIDE COMPOSTIONS AND METHODS FOR TREATING TAUOPATHIES” (AXOLTIS PHARMA, priority 2019, published 2023)
